Data from paper PMC3675114, “Structural Basis and Selectivity of Tankyrase Inhibition by a Wnt Signaling Inhibitor WIKI4” (PLoS ONE, 2013).

Molecular target: T1, Tankyrase 1 (TNKS1) (Homo sapiens, UniProt O95271)
T1 construct: gene TNKS
Assay: fluorescence-based homogeneous NAD+ consumption activity assay
Type: biochemical

T1 sequence (O95271 whole entry): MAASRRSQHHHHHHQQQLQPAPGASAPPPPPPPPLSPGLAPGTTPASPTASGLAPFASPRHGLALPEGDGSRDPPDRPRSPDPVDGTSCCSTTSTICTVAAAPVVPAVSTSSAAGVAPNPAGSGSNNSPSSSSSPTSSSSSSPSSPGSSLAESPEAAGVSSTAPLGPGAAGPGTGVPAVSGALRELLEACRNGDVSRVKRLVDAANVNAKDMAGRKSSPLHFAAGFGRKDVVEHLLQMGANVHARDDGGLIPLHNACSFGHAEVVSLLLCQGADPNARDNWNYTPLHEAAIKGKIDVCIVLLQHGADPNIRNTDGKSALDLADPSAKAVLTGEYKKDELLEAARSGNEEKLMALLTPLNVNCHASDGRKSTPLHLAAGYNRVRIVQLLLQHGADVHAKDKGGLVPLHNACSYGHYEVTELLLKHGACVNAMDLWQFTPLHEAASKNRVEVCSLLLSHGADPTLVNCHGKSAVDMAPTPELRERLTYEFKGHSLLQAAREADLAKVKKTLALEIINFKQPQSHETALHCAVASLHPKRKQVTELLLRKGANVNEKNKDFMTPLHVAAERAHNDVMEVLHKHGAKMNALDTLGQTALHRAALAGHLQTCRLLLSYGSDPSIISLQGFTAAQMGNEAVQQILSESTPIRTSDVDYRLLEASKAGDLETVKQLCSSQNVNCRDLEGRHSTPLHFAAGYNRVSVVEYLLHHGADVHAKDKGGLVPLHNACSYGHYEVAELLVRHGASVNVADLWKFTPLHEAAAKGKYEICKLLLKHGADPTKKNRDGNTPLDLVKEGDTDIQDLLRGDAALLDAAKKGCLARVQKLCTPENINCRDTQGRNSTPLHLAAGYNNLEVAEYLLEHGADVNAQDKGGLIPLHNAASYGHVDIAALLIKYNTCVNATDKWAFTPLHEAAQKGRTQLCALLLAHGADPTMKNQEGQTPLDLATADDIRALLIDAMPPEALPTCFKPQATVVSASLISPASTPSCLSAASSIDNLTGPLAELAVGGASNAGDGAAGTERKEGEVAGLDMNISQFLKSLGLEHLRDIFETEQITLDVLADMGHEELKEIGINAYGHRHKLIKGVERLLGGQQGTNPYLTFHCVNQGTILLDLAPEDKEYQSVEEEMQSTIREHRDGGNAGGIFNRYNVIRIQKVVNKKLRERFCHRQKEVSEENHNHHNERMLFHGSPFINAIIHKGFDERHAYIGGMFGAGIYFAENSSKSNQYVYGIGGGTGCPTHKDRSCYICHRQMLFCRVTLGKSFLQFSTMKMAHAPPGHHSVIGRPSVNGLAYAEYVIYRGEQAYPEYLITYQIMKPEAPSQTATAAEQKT

In the case of `COc1ccc(-n2c(SCCCN3C(=O)c4cccc5cccc(c45)C3=O)nnc2-c2ccncc2)cc1` [WIKI4], the IC50 is reported as 0.026 µM.
